According to paper PMC7696185, “Synthesis of New 1, 3, 4-Oxadiazole-Incorporated 1, 2, 3-Triazole Moieties as Potential Anticancer Agents Targeting Thymidylate Synthase and Their Docking Studies” (Pharmaceuticals, 2020):
Read-outs that look alike come from different tables or passages of the source.

Tests used:
[1] = tested on: MCF-7 cells; assay: MTT cytotoxicity assay, MCF-7; assay type: cell-based, human; conditions: for IC50: Homo sapiens, MCF7, breast cancer MCF-7, MTT, 72 h
Protocol: (§1) These compounds were tested against breast MCF-7 and colorectal HCT-116 cell lines.
The human breast cancer cell line (MCF-7) used in the present study was obtained from Dr. Neamatallah’s lab. The cells were cultured in Dulbecco’s Modified Eagle Medium (DMEM) supplemented with 10% (v/v) fetal bovine serum (FBS), 10,000 units/mL penicillin/streptomycin, and 1% (v/v) L-glutamine at 37 °C in humidified 5% CO2 incubator.
(§2) The cytotoxicity activity was done by MTT assay. Breast MCF-7 and colorectal HCT-116 cancer cells were added at 1 × 10^5 cells/mL into a 96-well plate with three replicates, and incubated overnight for attachment at 37 °C in a 5% CO2 humidified atmosphere. Drug concentrations at six serial dilutions (100.0, 50.0, 10.0, 1.0, 0.5, and 0.1 μM) were added in triplicate and incubated at 37 °C and 5% CO2 for 72 h. Drugs were dissolved in 0.1% DMSO as a vehicle. Untreated cells were used as control. […] Thereafter, each well for each time point was removed and replaced with […] of full medium containing 10% 3-(4,5- dimethylthiaxolyl-2)-2,5-diphenyltetrazoliumbromide (MTT) (10 mg/mL). Then the media was removed and 100 µl of DMSO was added, and cells were incubated for a further 5 mins at 37 °C and 5% CO2. Plates were quantified using the SpectraMax M3 plate reader at 570 nm. The percentage inhibition was calculated as 100 − ((mean OD of treated cell × 100)/Mean OD of vehicle treated cells (DMSO)). All the experiments were repeated in at least three independent experiments (Table 2, Figure 3, Figure 4, Figure 5 and Figure 6).

[2] = tested on: HCT-116 cells; assay: MTT cytotoxicity assay, HCT-116; assay type: cell-based, human; conditions: for IC50: colorectal cancer HCT-116, MTT, 72 h; for fold activity compared to 5-fluorouracil, HCT-116 / fold activity compared to tamoxifen, HCT-116: ratio of IC50, HCT-116
Protocol: as §1, §2

[3] = target: thymidylate synthase (TS) (Homo sapiens, UniProt P04818); assay: In vitro thymidylate synthase enzyme assay; assay type: biochemical; conditions: for fold activity compared to pemetrexed, TS: ratio of IC50, TS enzyme
thymidylate synthase (TS), sequence (P04818 whole entry): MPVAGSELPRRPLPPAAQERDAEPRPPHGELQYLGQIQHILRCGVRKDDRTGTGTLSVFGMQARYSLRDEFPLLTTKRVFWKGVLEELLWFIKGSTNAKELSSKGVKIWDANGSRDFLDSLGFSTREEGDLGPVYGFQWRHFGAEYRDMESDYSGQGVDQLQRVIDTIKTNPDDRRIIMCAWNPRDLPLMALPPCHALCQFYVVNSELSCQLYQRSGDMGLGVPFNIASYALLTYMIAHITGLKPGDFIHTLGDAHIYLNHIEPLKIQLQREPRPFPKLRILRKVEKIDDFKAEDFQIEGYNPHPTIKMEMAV
Protocol: The inhibition of this enzyme plays a vital role in chemotherapy treatment. […] This inactivation of dTMP results in a reduction of deoxythymidine triphosphate (dTTP), leading to the disruption of DNA synthesis and cessation of cell growth and proliferation (Figure 7).
A thymidylate synthase enzymatic assay was carried out according to the reported method. It involves a mixture containing 2-mercaptoethanol (0.1 M), (6R,S)-tetrahydrofolate (0.0003 M), formaldehyde (0.012 M), MgCl2 (0.02 M), dUMP (0.001 M), TrisHCl (0.04 M), and NaEDTA (0.00075 M).This assay was done spectrophotometrically at 30° C and pH 7.4. The reaction was initiated by the addition of an amount of enzyme, giving a change in absorbance at 340 nm of 0.016/min in the absence of inhibitor. The percent inhibition was determined at a minimum of four inhibitor concentrations within 20% of the 50% point.

[4] = tested on: HEK 293 cells; assay: MTT assay on non-tumorigenic cell line HEK 293; assay type: cell-based; conditions: HEK293, normal human embryonic kidney cells
[5] = spectrophotometric, 340 nm, 30 °C, pH 7.4, read-out: IC50 thymidylate synthase

O=c1[nH]cc(F)c(=O)[nH]1 [Compound 5-FU, 5-fluorouracil, reference compound]
IC50 [1]: 24.7 µM
IC50 ([2]; Homo sapiens, HCT-116, 72 h): 32.7 µM

Cc1ccc(-n2cc(CSc3nnc(-c4ccccc4)o3)nn2)cc1 [Compound 6, 4-((5-phenyl–1,3,4-oxadiazol–2-ylthio)methyl)-1-p-tolyl–1H-1,2,3-triazole]
IC50 [1]: 79.8 µM
IC50 ([2]; Homo sapiens, HCT-116, 72 h): 89.2 µM

Cc1ccccc1-n1cc(CSc2nnc(-c3ccccc3)o2)nn1 [Compound 7, 4-((5-phenyl–1,3,4-oxadiazol-2-ylthio)methyl)–1-o-tolyl-1H–1,2,3-triazole]
IC50 [1]: 30.7 µM
IC50 ([2]; Homo sapiens, HCT-116, 72 h): 34.3 µM

Clc1ccccc1-n1cc(CSc2nnc(-c3ccccc3)o2)nn1 [Compound 8, 4-((5-phenyl–1,3,4-oxadiazol–2-ylthio)methyl)–1-(2-chlorophenyl)-1H–1,2,3-triazole]
IC50 [1]: 73.3 µM
melting point: 111 to 112 °C
IC50 ([2]; Homo sapiens, HCT-116, 72 h): > 100 µM
IC50 [2]: 108 µM

Clc1ccc(-n2cc(CSc3nnc(-c4ccccc4)o3)nn2)cc1 [Compound 9, 4-((5-phenyl–1,3,4-oxadiazol-2-ylthio)methyl)–1-(4-chlorophenyl)-1H–1,2,3-triazole]
IC50 [1]: 34.4 µM
melting point: 200 to 202 °C
IC50 ([2]; Homo sapiens, HCT-116, 72 h): 36.7 µM

Brc1cccc(-n2cc(CSc3nnc(-c4ccccc4)o3)nn2)c1 [Compound 10, 4-((5-phenyl–1,3,4-oxadiazol–2-ylthio)methyl)-1-(3-bromophenyl)-1H–1,2,3-triazole]
IC50 [1]: 25.9 µM
melting point: 146 to 148 °C
IC50 ([2]; Homo sapiens, HCT-116, 72 h): 32.7 µM

O=[N+]([O-])c1ccc(-n2cc(CSc3nnc(-c4ccccc4)o3)nn2)cc1 [Compound 11, 4-((5-phenyl–1,3,4-oxadiazol–2-ylthio)methyl)–1-(4-nitrophenyl)-1H–1,2,3-triazole]
IC50 [1]: 98.2 µM
melting point: 202 to 204 °C
IC50 ([2]; Homo sapiens, HCT-116, 72 h): > 100 µM
IC50 [2]: 102 µM

c1ccc(-c2nnc(SCc3cn(-c4ccccc4)nn3)o2)cc1 [Compound 12, 4-((5-phenyl–1,3,4-oxadiazol–2-ylthio)methyl)-1-phenyl-1H–1,2,3-triazole]
IC50 [1]: 5.8 µM
fold activity compared to 5-fluorouracil, MCF-7 ([1]; ratio of IC50, MCF-7): four-fold
fold activity compared to pemetrexed, TS [3]: 2.6 fold
IC50 [3, 5]: 2.52 µM
IC50 [4]: > 50 µM
IC50 ([2]; Homo sapiens, HCT-116, 72 h): 14.8 µM
fold activity compared to 5-fluorouracil, HCT-116 [2]: 2.2 fold
fold activity compared to tamoxifen, HCT-116 [2]: 1.7 fold

COC(=O)c1ccccc1-n1cc(CSc2nnc(-c3ccccc3)o2)nn1 [Compound 13, Methyl 2-(4-((5-phenyl–1,3,4-oxadiazol-2-ylthio)methyl)-1H–1,2,3-triazol–1-yl)benzoate]
IC50 [1]: 1.26 µM
fold activity compared to tamoxifen, MCF-7 ([1]; ratio of IC50, MCF-7): five times
fold activity compared to pemetrexed, TS [3]: 1.5 fold
IC50 [3, 5]: 4.38 µM
IC50 [4]: > 50 µM
melting point: 119 to 120 °C
IC50 ([2]; Homo sapiens, HCT-116, 72 h): 17.3 µM
fold activity compared to 5-fluorouracil, HCT-116 [2]: 1.9 fold
fold activity compared to tamoxifen, HCT-116 [2]: 1.5 fold

O=C(O)c1ccccc1-n1cc(CSc2nnc(-c3ccccc3)o2)nn1 [Compound 14, 2-(4-((5-phenyl–1,3,4-oxadiazol–2-ylthio)methyl)-1H–1,2,3-triazol–1-yl)benzoic acid]
IC50 [1]: 40.6 µM
melting point: 119 to 120 °C
IC50 ([2]; Homo sapiens, HCT-116, 72 h): 46.8 µM

Nc1nc2[nH]cc(CCc3ccc(C(=O)N[C@@H](CCC(=O)O)C(=O)O)cc3)c2c(=O)[nH]1 [PTX, pemetrexed, reference compound]
IC50 [3]: 6.75 µM
